Source: patent US9610285B2, “Compositions for controlling food intake and uses therefor” (UNIVERSITY OF FLORIDA RESEARCH FOUNDATION, INCORPORATED, priority 2011, dated 2017)
Marks after values point to notes of the source that are not given here.

How the values were obtained:
Assay type in all cases: in vivo, rat
Male Sprague-Dawley rats [1] = assay: Palatable food intake following drug injections in binge-eating rats (Example 2); conditions: for Effect on palatable food (fat) intake, in words / Effect on palatable food (sugar) intake, in words / Effect on palatable food (sugar-fat) intake, in words: one-way ANOVA over saline, low and high dose
Description: (§1) Male Sprague-Dawley rats, 250-300 g at the onset of the experiment, were obtained from Taconic Farms (Germantown, N.Y., USA). Rats were housed individually on a 12-h reversed light/dark cycle and given 1 wk to acclimate before diet training began.
(§2) The rats were divided into groups (n=10/group) matched for body weight and assigned to one of the following dietary conditions: (1) Binge Sugar, (2) Binge Fat or (3) Binge Sugar-Fat. All rats received palatable diets and standard rodent chow (LabDiet #5001, PMI Nutrition International, Richmond, Ind., USA; 10% fat, 20% protein, 70% carbohydrate, 3.02 kcal/g) for 12 h/day, starting 4 h after the onset of the dark cycle. Water was available ad libitum.
(§3) All palatable foods were mixed in the laboratory. The Binge Sugar group had access to a 10% (w/v) sucrose solution (Domino® Granulated Pure Cane Sugar, dissolved in tap water, 0.4 kcal/mL), the Binge Fat group had access to a 35% (w/v) fat emulsion (3.1 kcal/mL) and the Binge Sugar-Fat group had access to a 10% (w/v) sugar solution and 35% (w/v) fat emulsion (3.5 kcal/mL). Both emulsions were made with Wesson® Pure Vegetable Oil in tap water and 0.6% (w/v) Emplex, a commercially available emulsifier (American Ingredients Company, Kansas City, Mo., USA). Palatable food intakes were recorded daily. Chow intake was recorded weekly. Body weights were taken at the beginning and end of the 21-day diet period.
(§4) After 21 days on these diets, drug testing began. During testing, diet regimens were maintained. Approximately 3.5 h into the dark cycle, animals were weighed and intraperitoneal (i.p.) injections of drug were given (according to the schedule below). 30 min later (4 h into the dark cycle) palatable food and chow were made available to the rats. For the first 3 days, rats were acclimated to handling and daily vehicle injections (0.9% saline, Hospira, Lake Forest, Ill., USA, i.p. 1 mL/kg). For days 4-16 of drug testing, either vehicle or drug was alternatively administered, starting with drug on day 4. […] Intake of palatable food and chow was measured hourly after injection for 4 h and again at the end of the 12-h access period.
(§5) Palatable food and standard chow intakes following saline injections between days 4-16 were averaged. All data were analyzed using one-way ANOVAs with post hoc Multiple Comparisons, when appropriate. In Tables 4-7, values having the same letter superscript are statistically different from one another.

Male Sprague-Dawley rats [2] = assay: Standard chow intake following drug injections in binge-eating rats (Example 2); conditions: for Effect on standard chow intake, in words: one-way ANOVA over saline, low and high dose
Description: as §1, §2, §3, §4, §5

rats = assay: Binge eating rats, palatable food and chow intake (Example 1, FIGS. 1-5); conditions: drug alone, i.p., figure legends
Description: Baclofen (at 1.0 and 1.8 mg/kg, administered i.p.)
Baclofen+naltrexone (mixed low and mixed high)
1. Binge Sugar (10% sucrose solution, w/v)
2. Binge Fat (35% oil emulsion, w/v)
3. Binge Sugar/Fat (10% sucrose, 35% oil emulsion, w/v)
Groups of animals (rats) were maintained on their diets for 3 weeks to establish stable binge eating behavior. After this period of time, the rats were administered three days of daily i.p. injections of saline (to acclimate to the injection procedure), and sugar/chow intake was measured after the first hour of access and then hourly for the next 3 hours, as well as at the end of the 12-h access period. After this three-day period, rats were given baclofen+naloxone, and measurements taken as described above. Other dosage amounts of baclofen and naloxone were tested, as were the effects of these compounds alone (with measurements being performed as described above). Vehicle injections were performed between the various tests in order to allow for suitable clearance of compounds from the animals. […] Thus, the treatment appears ideally suited for food addicts, hedonic overeaters and changes food choice but not appetite.

Male Sprague-Dawley rats [3] = assay: Total caloric intake following drug injections in binge-eating rats (Example 2); conditions: for Effect on total caloric intake, in words: one-way ANOVA over saline, low and high dose
Description: as §1, §2, §3, §4, §5

[4] = Binge Fat group, 1 h, high dose (naltrexone 1.0 mg/kg, baclofen 1.8 mg/kg, or both, i.p.)
[5] = Binge Fat group, 1 h, low dose (naltrexone 0.1 mg/kg, baclofen 1.0 mg/kg, or both, i.p.)
[6] = Binge Fat group, 12 h, high dose (naltrexone 1.0 mg/kg, baclofen 1.8 mg/kg, or both, i.p.)
[7] = Binge Fat group, 12 h, low dose (naltrexone 0.1 mg/kg, baclofen 1.0 mg/kg, or both, i.p.)
[8] = Binge Sugar group, 1 h, high dose (naltrexone 1.0 mg/kg, baclofen 1.8 mg/kg, or both, i.p.)
[9] = Binge Sugar group, 1 h, low dose (naltrexone 0.1 mg/kg, baclofen 1.0 mg/kg, or both, i.p.)
[10] = Binge Sugar group, 12 h, high dose (naltrexone 1.0 mg/kg, baclofen 1.8 mg/kg, or both, i.p.)
[11] = Binge Sugar group, 12 h, low dose (naltrexone 0.1 mg/kg, baclofen 1.0 mg/kg, or both, i.p.)
[12] = Binge Sugar-Fat group, 1 h, high dose (naltrexone 1.0 mg/kg, baclofen 1.8 mg/kg, or both, i.p.)
[13] = Binge Sugar-Fat group, 1 h, low dose (naltrexone 0.1 mg/kg, baclofen 1.0 mg/kg, or both, i.p.)
[14] = Binge Sugar-Fat group, 12 h, high dose (naltrexone 1.0 mg/kg, baclofen 1.8 mg/kg, or both, i.p.)
[15] = Binge Sugar-Fat group, 12 h, low dose (naltrexone 0.1 mg/kg, baclofen 1.0 mg/kg, or both, i.p.)

NC[C@H](CC(=O)O)c1ccc(Cl)cc1 [Baclofen, R-baclofen]
1-H Palatable Food Intake (Kcal) (Male Sprague-Dawley rats [1]; [4]): 6.5 ± 2.0^c,d Kcal | Palatable food intake as a percent of intake after saline injections, 1-H Intake (%) (Male Sprague-Dawley rats [1]; [4]): 38% | 1-H Palatable Food Intake (Kcal) (Male Sprague-Dawley rats [1]; [5]): 17.9 ± 2.4^d Kcal | Palatable food intake as a percent of intake after saline injections, 1-H Intake (%) (Male Sprague-Dawley rats [1]; [5]): 106% | Effect on palatable food (fat) intake, in words (Male Sprague-Dawley rats [1]; Binge Fat group, 1 h): decreased | 12-H Palatable Food Intake (Kcal) (Male Sprague-Dawley rats [1]; [6]): 32.6 ± 4.9^e,f Kcal | Palatable food intake as a percent of intake after saline injections, 12-H Intake (%) (Male Sprague-Dawley rats [1]; [6]): 56% | 12-H Palatable Food Intake (Kcal) (Male Sprague-Dawley rats [1]; [7]): 54.5 ± 4.5^f Kcal | Palatable food intake as a percent of intake after saline injections, 12-H Intake (%) (Male Sprague-Dawley rats [1]; [7]): 93% | Effect on palatable food (fat) intake, in words (Male Sprague-Dawley rats [1]; Binge Fat group, 12 h): decreased | 1-H Palatable Food Intake (Male Sprague-Dawley rats [1]; [8]): 2.7 ± 0.5 kcal | Palatable food intake as a percent of intake after saline injections, 1-H Intake (%) (Male Sprague-Dawley rats [1]; [8]): 96% | 1-H Palatable Food Intake (Male Sprague-Dawley rats [1]; [9]): 3.6 ± 0.8 kcal | Palatable food intake as a percent of intake after saline injections, 1-H Intake (%) (Male Sprague-Dawley rats [1]; [9]): 131% | Effect on palatable food (sugar) intake, in words (Male Sprague-Dawley rats [1]; Binge Sugar group, 1 h): no effect | 12-H Palatable Food Intake (Kcal) (Male Sprague-Dawley rats [1]; [10]): 11.4 ± 2.4^ Kcal | Palatable food intake as a percent of intake after saline injections, 12-H Intake (%) (Male Sprague-Dawley rats [1]; [10]): 90% | 12-H Palatable Food Intake (Male Sprague-Dawley rats [1]; [11]): 11.3 ± 2.5 kcal | Palatable food intake as a percent of intake after saline injections, 12-H Intake (%) (Male Sprague-Dawley rats [1]; [11]): 88% | Effect on palatable food (sugar) intake, in words (Male Sprague-Dawley rats [1]; Binge Sugar group, 12 h): no effect | 1-H Palatable Food Intake (Kcal) (Male Sprague-Dawley rats [1]; [12]): 8.6 ± 1.6^j,k Kcal | Palatable food intake as a percent of intake after saline injections, 1-H Intake (%) (Male Sprague-Dawley rats [1]; [12]): 37% | 1-H Palatable Food Intake (Kcal) (Male Sprague-Dawley rats [1]; [13]): 23.5 ± 3.9^j Kcal | Palatable food intake as a percent of intake after saline injections, 1-H Intake (%) (Male Sprague-Dawley rats [1]; [13]): 100% | Effect on palatable food (sugar-fat) intake, in words (Male Sprague-Dawley rats [1]; Binge Sugar-Fat group, 1 h): significantly decreased | 12-H Palatable Food Intake (Kcal) (Male Sprague-Dawley rats [1]; [14]): 57.4 ± 4.1^p Kcal | Palatable food intake as a percent of intake after saline injections, 12-H Intake (%) (Male Sprague-Dawley rats [1]; [14]): 75% | 12-H Palatable Food Intake (Male Sprague-Dawley rats [1]; [15]): 64.9 ± 6.6 kcal | Palatable food intake as a percent of intake after saline injections, 12-H Intake (%) (Male Sprague-Dawley rats [1]; [15]): 85% | Effect on palatable food (sugar-fat) intake, in words (Male Sprague-Dawley rats [1]; Binge Sugar-Fat group, 12 h): suppressed intake | 1-H Chow Intake (Male Sprague-Dawley rats [2]; [4]): 10.6 ± 1.0 kcal | 1-H Chow Intake (Male Sprague-Dawley rats [2]; [5]): 12.2 ± 1.7 kcal | 12-H Chow Intake (Male Sprague-Dawley rats [2]; [6]): 35.0 ± 5.0 kcal | 12-H Chow Intake (Male Sprague-Dawley rats [2]; [7]): 34.1 ± 3.3 kcal | 1-H Chow Intake (Male Sprague-Dawley rats [2]; [8]): 19.3 ± 3.4 kcal | 1-H Chow Intake (Male Sprague-Dawley rats [2]; [9]): 23.0 ± 1.5 kcal | 12-H Chow Intake (Male Sprague-Dawley rats [2]; [10]): 62.5 ± 3.8 kcal | 12-H Chow Intake (Kcal) (Male Sprague-Dawley rats [2]; [11]): 73.5 ± 4.5^c Kcal | 1-H Chow Intake (Kcal) (Male Sprague-Dawley rats [2]; [12]): 6.3 ± 1.0^i Kcal | 1-H Chow Intake (Kcal) (Male Sprague-Dawley rats [2]; [13]): 11.3 ± 1.7^i Kcal | Effect on standard chow intake, in words (Male Sprague-Dawley rats [2]; Binge Sugar-Fat group, 1 h): less chow intake at the high dose compared to the low dose | 12-H Chow Intake (Male Sprague-Dawley rats [2]; [14]): 24.1 ± 3.1 kcal | 12-H Chow Intake (Male Sprague-Dawley rats [2]; [15]): 24.6 ± 2.2 kcal | Effect on standard chow intake, in words (Male Sprague-Dawley rats [2]; Fat group, 1 h): no effect | Effect on standard chow intake, in words (Male Sprague-Dawley rats [2]; Fat group, 12 h): no effect | Effect on standard chow intake, in words (Male Sprague-Dawley rats [2]; Sugar group, 1 h): no effect | Effect on standard chow intake, in words (Male Sprague-Dawley rats [2]; Sugar group, 12 h): stimulated chow intake | Effect on intake of oil-containing palatable foods (rats; oil containing groups (Binge Fat, Binge Sugar/Fat)): reduces intake | Effect on binge eating of sugar (rats; sugar-binging rats): no effect | 1-H Total Caloric Intake (Kcal) (Male Sprague-Dawley rats [3]; [4]): 17.0 ± 3.0^e,f Kcal | 1-H Total Caloric Intake (Kcal) (Male Sprague-Dawley rats [3]; [5]): 30.1 ± 4.1^f Kcal | 12-H Total Caloric Intake (Kcal) (Male Sprague-Dawley rats [3]; [6]): 67.7 ± 9.9^g Kcal | 12-H Total Caloric Intake (Male Sprague-Dawley rats [3]; [7]): 88.6 ± 7.8 kcal | 1-H Total Caloric Intake (Male Sprague-Dawley rats [3]; [8]): 21.9 ± 4.4 kcal | 1-H Total Caloric Intake (Male Sprague-Dawley rats [3]; [9]): 26.7 ± 2.3 kcal | 12-H Total Caloric Intake (Male Sprague-Dawley rats [3]; [10]): 74.0 ± 6.3 kcal | 12-H Total Caloric Intake (Male Sprague-Dawley rats [3]; [11]): 84.8 ± 7.0 kcal | 1-H Total Caloric Intake (Kcal) (Male Sprague-Dawley rats [3]; [12]): 15.0 ± 2.6^k,m Kcal | 1-H Total Caloric Intake (Kcal) (Male Sprague-Dawley rats [3]; [13]): 34.8 ± 5.6^m Kcal | 12-H Total Caloric Intake (Male Sprague-Dawley rats [3]; [14]): 81.4 ± 7.3 kcal | 12-H Total Caloric Intake (Male Sprague-Dawley rats [3]; [15]): 89.5 ± 8.8 kcal | Effect on total caloric intake, in words (Male Sprague-Dawley rats [3]; Fat group, 1 h): significantly reduced | Effect on total caloric intake, in words (Male Sprague-Dawley rats [3]; Fat group, 12 h): significantly reduced | Effect on total caloric intake, in words (Male Sprague-Dawley rats [3]; Sugar group, 1 h): no effect | Effect on total caloric intake, in words (Male Sprague-Dawley rats [3]; Sugar group, 12 h): no effect | Effect on total caloric intake, in words (Male Sprague-Dawley rats [3]; Sugar-Fat group, 1 h): reduced | Effect on total caloric intake, in words (Male Sprague-Dawley rats [3]; Sugar-Fat group, 12 h): not apparent
